Data set [1] in a line: Determination of aqueous solubility. It counts as physicochemical. Particulars: aqueous medium, aqueous buffer, thermodynamic from solid, pH 7.4, agitation 24 h, 20° C., HPLC. How it is done:
The aqueous solubility of each compound was measured at pH 7.4. It was measured using HPLC on the supernatants obtained by centrifugation after saturation of the media with excess compound after an agitation time of 24 h and at a temperature of 20° C. The preparation and treatment of the samples was robotized.

The nature of data set [2]: Pharmacokinetic parameters in mice. The class given is in vivo, balb/c mice. The conditions noted are these: for AUC(0-inf) / AUC(0-t) / Cmax / half-life: mouse, balb/c mice, intravenous route, 10 mg/kg, plasma; for half-life: read-out: t½ (converted). How it is done: The pharmacokinetic behaviour of compounds is a pre-requisite for reasonable use thereof in in vivo experimentation. The compounds were given in DMSO solution via intravenous route (IV) or oral route (PO) to balb/c mice. Blood samples were taken at times ranging from 5 minutes to 6 hours, the plasmas were collected and the concentration of the compounds in each sample was assayed by LC/MS/MS. The data obtained allowed the plotting of time-concentration curves and determination of fundamental parameters such as plasma half-life of the compound (T½), area under curve at a given time (AUCt) and the maximum concentration obtained (Cmax).

Another data set has as its system HL-60/R10. Briefly: Cytotoxicity test (ViaLight Plus cell proliferation) on HL-60/R10. The conditions noted are these: doxorubicin-resistant line, 72 hours' incubation, cell viability vs 0.5% DMSO control, read-out: EC50 HL60/R10; for IC50: HL-60, 72 h. The class given is cell-based, human.
A further data set relates to SK-OV-3. The experiment in a line: Cytotoxicity test (ViaLight Plus cell proliferation) on SK-OV-3. The class given is cell-based, human. The conditions noted are these: cisplatin- and adriamycin resistant line, 72 hours' incubation, cell viability; for IC50: Homo sapiens, SK-OV-3, read-out: EC50 SK-OV-3. An excerpt:
(§1) The effects of the compounds of the invention on the proliferation of cancer cells were studied on different human cancer cell lines of different tissue origin (MCF-7: breast cancer, MCF-7/adr adriamycin-resistant breast cancer, HL-60: acute promyelocytic leukaemia, HL-60/R10: doxorubicin-resistant acute promyelocytic leukaemia, HT29: colon adenocarcinoma, Mia Paca2: pancreatic tumour, Panc-1: pancreatic exocrine tumour, SK-OV-3: cisplatin- and adriamycin resistant ovarian cancer). The cancer cells used for this study were incubated at 37° C. in the presence of one of the compounds of the invention added to the culture medium at different concentrations.
(§2) The cancer cell lines were obtained from ATCC (American Type Culture Collection) for MCF-7, from Hôpital de la Pitié Salpetrière for MCF-7/adr and from Oncodesign (Dijon, France) for HL-60, HL-60/R10, HT29, MiaPaCa2, Panc-1 and SK-OV-3. They were cultured in RPMI 1640 medium containing 2 mM L-Glutamine supplemented with 10% foetal calf serum (Lonza; Verviers, Belgium). All the cell lines were held in culture at 37° C. in a humid atmosphere containing 5% CO2. Cell proliferation was assessed using the ViaLight® Plus Assay Kit (Lonza; Verviers, Belgium) following the manufacturer's instructions. The cells were seeded in 96-well culture plates compatible with luminescence read-off (white plates with transparent bottom) in a proportion of 5 000 to 10 000 cells per well in 100 μl of culture medium. After a pre-incubation time of 24 hours at 37° C., the compounds of the invention dissolved in dimethylsulfoxide (DMSO) were individually added to each well in a proportion of 0.5 μl per well. After 72 hours' incubation at 37° C. in a humid atmosphere containing 5% CO2, 50 μl of lysis buffer were added to each well and 15 minutes later 100 μl of ATP measuring agent were added. The plates were read under a luminometer to evaluate cell viability. The data obtained was processed by computer to obtain the EC50 value i.e. the concentration value of each of the compounds which induces 50% cell viability compared with a control value (0.5% DMSO alone).

The next data set has as its system MCF-7. Briefly: Cytotoxicity test (ViaLight Plus cell proliferation) on MCF-7. The class given is cell-based, human. Particulars: 72 hours' incubation, cell viability vs 0.5% DMSO control; for IC50: Homo sapiens, MCF7, 72 h, read-out: EC50 MCF-7.
From the text: as §1, §2

For the next data set, the system named is HT29. The experiment in a line: Cytotoxicity test (ViaLight Plus cell proliferation) on HT29. The class given is cell-based, human. Particulars: 72 hours' incubation, cell viability; for IC50: Homo sapiens, HT-29, read-out: EC50 HT29.
From the text: as §1, §2

Another data set has as its system MCF-7/adr. The experiment in a line: Cytotoxicity test (ViaLight Plus cell proliferation) on MCF-7/adr. It counts as cell-based, human. The conditions noted are these: adriamycin-resistant line, 72 hours' incubation, cell viability vs 0.5% DMSO control; for IC50: Homo sapiens, NCI/ADR-RES, 72 h, read-out: EC50 MCF-7/adr.
From the text: as §1, §2

For a further data set, the system named is HL-60. Briefly: Cytotoxicity test (ViaLight Plus cell proliferation) on HL-60. The class given is cell-based, human. Particulars: 72 hours' incubation, cell viability vs 0.5% DMSO control; for IC50: HL-60, 72 h, read-out: EC50 HL-60.
Another data set concerns Panc-1. Briefly: Cytotoxicity test (ViaLight Plus cell proliferation) on Panc-1. It counts as cell-based, human. The conditions noted are these: 72 hours' incubation, cell viability; for IC50: Homo sapiens, PANC-1, read-out: EC50 Panc-1.
From the text: as §1, §2

The test system of a further data set is Mia PaCa2. The experiment in a line: Cytotoxicity test (ViaLight Plus cell proliferation) on Mia PaCa2. It counts as cell-based, human. The conditions noted are these: 72 hours' incubation, cell viability; for IC50: Homo sapiens, MIA PaCa-2, read-out: EC50 Mia PaCa2.
From the text: as §1, §2

≈ marks a conversion by molar mass, not a printed value. Read-outs that look alike come from different tables or passages of the source.

On to `CC(C)[C@H]1CN(C(=O)C(c2cccs2)N(C(=O)CCl)c2ccc(Oc3ccccc3)cc2)CCN1` (stereo partly drawn), for which the concentration in solution in data set [1] (solubility at 24 h) came to 50 µg/mL (≈ 97.6 µM).
Turning to `Cc1cc(Oc2ccccc2)ccc1N(C(=O)CCl)C(C(=O)N1CC(C)NC(C)C1)c1cccs1.Cl` (stereo not drawn), in data set [2], the AUC(0-inf) (usually the area under the concentration-time curve extrapolated to infinity) stood at 3840 ng·h/mL; the AUC(0-t) (in general, exposure summed from dosing to a finite time, without extrapolation to infinity) was 3290 ng·h/mL; the Cmax (commonly the highest concentration seen after dosing) stood at 3800 ng/mL; the half-life was 2.64 h.
For the compound `Cc1cc(Oc2ccccc2)ccc1N(C(=O)CCl)C(C(=O)N1CCN[C@@H](C)C1)c1cccs1.Cl` (stereo partly drawn), in data set [2], the total exposure AUC(0-inf) came to 2060 ng·h/mL, the AUC(0-t) turned out to be 1680 ng·h/mL, the Cmax is 1420 ng/mL and the half-life is 2.47 h.
Take `CC(C)[C@H]1CN(C(=O)C(c2ccc(F)cc2)N(C(=O)CCl)c2ccc(Oc3ccccc3)cc2)CCN1` (single isomer, unassigned) [I-3 dia2]: the EC50 with HL-60/R10 amounted to 2 nM; in the data set on MCF-7 it was 301 nM; with MCF-7/adr it was 9 nM; in the data set with HL-60, 504 nM. In addition, the IC50 in the data set with SK-OV-3 was 1 nM; in the data set with HT29, 1 nM; in the data set with Panc-1, 1 nM; with Mia PaCa2, 2 nM.
As to `Cc1cc(Oc2ccccc2)ccc1N(C(=O)CCl)C(C(=O)N1CCN[C@@H](C(C)C)C1)c1ccc(F)cc1` (single isomer, unassigned) [I-7 dia2], the EC50 was determined as 26 nM with HL-60/R10, 1950 nM in the data set on MCF-7, 98 nM in the data set with MCF-7/adr and 1940 nM in the data set with HL-60. In addition, the IC50 with SK-OV-3 was determined as 7 nM; with HT29 it was 8 nM; in the data set with Panc-1, 5 nM; in the data set with Mia PaCa2, 13 nM.
As to `Cc1cc(Oc2ccccc2)ccc1N(C(=O)CCl)C(C(=O)N1CCN[C@@H](C)C1)c1cccs1` (single isomer, unassigned) [I-43 dia2], the IC50 amounted to 20 nM in the data set on HL-60/R10 (Homo sapiens); 9 nM with SK-OV-3; 1420 nM in the data set on MCF-7; 10 nM in the data set on HT29; 126 nM in the data set on MCF-7/adr; 1890 nM in the data set on HL-60 (Homo sapiens). For the same compound, the IC50 in the data set on Panc-1 was determined as 7 nM; in the data set on Mia PaCa2, 18 nM. The “bioavailability in a mouse” value in data set [2] (IV 10 mg/kg or PO 30 mg/kg, FIG. 1) was “good bioavailability”.
Turning to `Cc1cc(Oc2ccccc2)ccc1N(C(=O)CCl)C(C(=O)N1CCN[C@@H](C(C)C)C1)c1cccs1` (single isomer, unassigned; dia2) [I-46 dia2], the EC50 with HL-60/R10 worked out at 10 nM; with SK-OV-3 it was 6 nM; in the data set with MCF-7, 1180 nM; with HT29, 6 nM; with MCF-7/adr it was 58 nM; in the data set on HL-60, 449 nM. Besides, the results for the EC50 with Panc-1 and in the data set on Mia PaCa2 were 4 nM and 10 nM, respectively.
`CC(C)[C@H]1CN(C(=O)C(c2cccs2)N(C(=O)CCl)c2cccc(C(F)(F)F)c2)CCN1` (single isomer, unassigned; dia2) [I-50 dia2]: the EC50 came out at 8 nM in the data set on HL-60/R10; 11 nM in the data set with SK-OV-3; 9 nM in the data set on HT29; 841 nM in the data set on HL-60; 9 nM in the data set on Panc-1; 2200 nM with Mia PaCa2.
With `C[C@H]1CN(C(=O)C(c2cccs2)N(C(=O)CCl)c2ccc(Oc3ccccc3)cc2)CCN1.Cl` (stereo partly drawn) [Example I-58], the concentration in solution in [1] (solubility at 24 h) came to 203 µg/mL. The IC50 in the data set on HL-60/R10 (Homo sapiens) came to 11 nM; in the data set with MCF-7 it was 870 nM; with MCF-7/adr, 88 nM; in the data set with HL-60 (Homo sapiens) it was 1060 nM. The EC50 was found to be 11 nM in the data set on HL-60/R10 (Homo sapiens, HL-60) and 1060 nM with HL-60 (Homo sapiens, HL-60).
With `C[C@@H]1CN(C(=O)C(c2cccs2)N(C(=O)CCl)c2ccc(Oc3ccccc3)cc2)CCN1.Cl` (stereo partly drawn) [Example I-59], in data set [1], the solubility (usually how much of the substance goes into solution per volume) at 24 h was 152 µg/mL. The IC50 was determined as 16 nM with HL-60/R10 (Homo sapiens), 745 nM with MCF-7, 106 nM with MCF-7/adr and 956 nM in the data set with HL-60 (Homo sapiens). For the same compound, the EC50 in the data set with HL-60/R10 (Homo sapiens, HL-60) amounted to 16 nM.
`Cl.O=C(C(c1cccs1)N(C(=O)CCl)c1ccc(Oc2ccccc2)cc1)N1CCNCC1` (stereo not drawn) [reference compound] registered a solubility at 24 h in data set [1] of 68 µg/mL. Further, the IC50 in the data set on HL-60/R10 (Homo sapiens) was found to be 21 nM; with HL-60 (Homo sapiens), 579 nM.
Consider `C[C@H]1CNCCN1C(=O)C(c1cccs1)N(C(=O)CCl)c1ccc(Oc2ccccc2)cc1.Cl` (stereo partly drawn) [reference compound], for which, in data set [1], the solubility at 24 h was determined as 105 µg/mL. Besides, the IC50 stood at 65 nM in the data set with HL-60/R10 (Homo sapiens) and 662 nM in the data set on HL-60 (Homo sapiens).
Consider `Cc1cc(Oc2ccccc2)ccc1N(C(=O)CCl)C(C(=O)N1CCNCC1)c1cccs1.Cl` (stereo not drawn) [reference compound], for which, in data set [2], the AUC(0-inf) was 1320 ng·h/mL, the AUC(0-t) is 1280 ng·h/mL, the highest level (Cmax) was 1470 ng/mL and the half-life was 1.38 h.
Take “tert-butyl ester of 4-[-2-[(2-chloro-acetyl)-(4-phenoxy-phenyl)-amino]-2-(4-fluoro-phenyl)-acetyl]-(R)-2-isopropyl-piperazine-1-carboxylic acid [I-2 dia1]”: the EC50 with HL-60/R10 turned out to be 40 nM; in the data set on MCF-7 it was 2090 nM; with MCF-7/adr, 49 nM; in the data set on HL-60 it was 728 nM.
